Data reported in patent US8716292B2, “Riminophenazines with 2-(heteroaryl)amino substituents and their anti-microbial activity” (priority 2010, dated 2014).
≈ marks a conversion by molar mass, not a printed value.

Tested on: Mycobacterium tuberculosis H37Rv strains
Experiment: In vitro assay for antimicrobial susceptibility (microplate Alamar blue MIC)
Assay type: cell-based
Conditions: Mycobacterium tuberculosis, H37RV, in vitro, Mycobacterium tuberculosis H37Rv strains; read-out: MIC (μg/mL) against H37Rv

| SMILES | MIC [µg/mL] |
| --- | --- |
| COc1ncccc1Nc1cc2nc3ccccc3n(-c3ccc(Cl)cc3)c-2c/c1=N\C1CCN(CC(C)C)CC1 [TBI-442, 5-(4-Chlorophenyl)-3-(N-isobutyl-4-piperidyl)imino-2-(2-methoxy-3-pyridyl)amino-3,5-dihydrophenazine] | 0.016 (≈ 0.0282 µM) |
| Cc1ccc(Nc2cc3nc4ccccc4n(-c4ccc(Cl)cc4)c-3c/c2=N\CCN2CCOCC2)cn1 [TBI-445, 5-(4-Chlorophenyl)-3-(2-morpholinoethyl)imino-2-(6-methyl-3-pyridyl)amino-3,5-dihydrophenazine] | 0.076 (≈ 0.145 µM) |
| Cc1ccc(Nc2cc3nc4ccccc4n(-c4ccc(Cl)cc4)c-3c/c2=N\C2CCN(C)CC2)cn1 [TBI-446, 5-(4-Chlorophenyl)-3-(N-methyl-4-piperidyl)imino-2-(6-methyl-3-pyridyl)amino-3,5-dihydrophenazine] | 0.016 (≈ 0.0314 µM) |
| Cc1ccc(Nc2cc3nc4ccccc4n(-c4ccc(Cl)cc4)c-3c/c2=N\C2CCN(CC(C)C)CC2)cn1 [TBI-447, 5-(4-Chlorophenyl)-3-(N-isobutyl-4-piperidyl)imino-2-(6-methyl-3-pyridyl)amino-3,5-dihydrophenazine] | 0.028 (≈ 0.0508 µM) |
| Cc1ncccc1Nc1cc2nc3ccccc3n(-c3ccc(Cl)cc3)c-2c/c1=N\C(C)C [TBI-448, 5-(4-Chlorophenyl)-3-(1-methylethyl)imino-2-(2-methyl-3-pyridyl)amino-3,5-dihydrophenazine] | 0.055 (≈ 0.121 µM) |
| COc1ncccc1Nc1cc2nc3ccccc3n(-c3ccc(Cl)cc3)c-2c/c1=N\C1CCCCC1 [TBI-451] | 0.057 (≈ 0.112 µM) |
| Cc1ncccc1Nc1cc2nc3ccccc3n(-c3ccc(Cl)cc3)c-2c/c1=N\C1CCOCC1 [TBI-452] | 0.168 (≈ 0.339 µM) |
| COC1CCC(/N=c2\cc3n(-c4ccc(Cl)cc4)c4ccccc4nc-3cc2Nc2cccnc2C)CC1 (centres unmarked) [TBI-453, 5-(4-Chlorophenyl)-3-(4-methoxycyclohexyl)imino-2-(2-methyl-3-pyridyl)amino-3,5-dihydrophenazine] | 0.011 (≈ 0.021 µM) |
| CSc1cccc(-n2c3c/c(=N\C(C)C)c(Nc4cccnc4)cc-3nc3ccccc32)c1 [TBI-454, 5-(3-Methylthiophenyl)-3-(1-methylethyl)imino-2-(3-pyridyl)amino-3,5-dihydrophenazine] | 0.213 (≈ 0.472 µM) |
| CC(C)/N=c1\cc2n(-c3cccc([S+](C)[O-])c3)c3ccccc3nc-2cc1Nc1cccnc1 (centres unmarked) [TBI-455, 5-(3-Methylsulfinylphenyl)-3-(1-methylethyl)imino-2-(3-pyridyl)amino-3,5-dihydrophenazine] | 0.5 (≈ 1.07 µM) |
| CSc1ccc(-n2c3c/c(=N\C(C)C)c(Nc4cccnc4)cc-3nc3ccccc32)cc1 [TBI-456, 5-(4-Methylthiophenyl)-3-(1-methylethyl)imino-2-(3-pyridyl)amino-3,5-dihydrophenazine] | 0.05 (≈ 0.111 µM) |
| CC(C)/N=c1\cc2n(-c3ccc([S+](C)[O-])cc3)c3ccccc3nc-2cc1Nc1cccnc1 (centres unmarked) [TBI-457, 5-(4-Methylsulfinylphenyl)-3-(1-methylethyl)imino-2-(3-pyridyl)amino-3,5-dihydrophenazine] | 0.469 (≈ 1 µM) |
| Clc1ccc(-n2c3c/c(=N\C4CCSCC4)c(Nc4cccnc4)cc-3nc3ccccc32)cc1 [TBI-458] | 0.018 (≈ 0.0361 µM) |
| Cc1ccc(Nc2cc3nc4ccccc4n(-c4ccc(Br)cc4)c-3c/c2=N\C2CCC2)cn1 [TBI-501, 5-(4-Bromophenyl)-3-cyclobutylimino-2-(6-methyl-3-pyridyl)amino-3,5-dihydrophenazine] | 0.09 (≈ 0.176 µM) |
| Cc1ccc(Nc2cc3nc4ccccc4n(-c4ccc(Br)cc4)c-3c/c2=N\C2CCCCC2)cn1 [TBI-502, 5-(4-Bromophenyl)-3-cyclohexylimino-2-(6-methyl-3-pyridyl)amino-3,5-dihydrophenazine] | 0.217 (≈ 0.403 µM) |
| COC1CCC(/N=c2\cc3n(-c4ccc(Br)cc4)c4ccccc4nc-3cc2Nc2ccc(C)nc2)CC1 (centres unmarked) [TBI-503, 5-(4-Bromophenyl)-3-(4-methoxycyclohexyl)imino-2-(6-methyl-3-pyridyl)amino-3,5-dihydrophenazine] | 0.097 (≈ 0.171 µM) |
| Cc1ccc(Nc2cc3nc4ccccc4n(-c4ccc(Br)cc4)c-3c/c2=N\C2CCOCC2)cn1 [TBI-504, 5-(4-Bromophenyl)-3-(4-tetrahydropyranyl)imino-2-(6-methyl-3-pyridyl)amino-3,5-dihydrophenazine] | 0.044 (≈ 0.0814 µM) |
| COc1ncccc1Nc1cc2nc3ccccc3n(-c3ccccc3)c-2c/c1=N\C1CCC1 [TBI-505, 5-Phenyl-3-cyclobutylimino-2-(2-methoxy-3-pyridyl)amino-3,5-dihydrophenazine] | 0.043 (≈ 0.0961 µM) |
| Cc1ccc(Nc2cc3nc4ccccc4n(-c4ccccc4)c-3c/c2=N\C2CCC2)cn1 [TBI-506, 5-Phenyl-3-cyclobutylimino-2-(6-methyl-3-pyridyl)amino-3,5-dihydrophenazine] | 0.05 (≈ 0.116 µM) |
| Cc1ncccc1Nc1cc2nc3ccccc3n(-c3ccc(Br)cc3)c-2c/c1=N\C(C)C [TBI-507, 5-(4-Bromophenyl)-3-(1-methylethyl)imino-2-(2-methyl-3-pyridyl)amino-3,5-dihydrophenazine] | 0.062 (≈ 0.124 µM) |
| Cc1ncccc1Nc1cc2nc3ccccc3n(-c3ccc(Br)cc3)c-2c/c1=N\C1CCCCC1 [TBI-508, 5-(4-Bromophenyl)-3-cyclohexylimino-2-(2-methyl-3-pyridyl)amino-3,5-dihydrophenazine] | 0.021 (≈ 0.039 µM) |

| SMILES | MIC [µg/mL] |
| --- | --- |
| COC1CCC(/N=c2\cc3n(-c4ccc(Br)cc4)c4ccccc4nc-3cc2Nc2cccnc2C)CC1 (centres unmarked) [TBI-509, 5-(4-Bromophenyl)-3-(4-methoxycyclohexyl)imino-2-(2-methyl-3-pyridyl)amino-3,5-dihydrophenazine] | 0.015 (≈ 0.0264 µM) |
| COc1ccc(Nc2cc3nc4ccccc4n(-c4ccccc4)c-3c/c2=N\C(C)C)cn1 [TBI-510, 5-Phenyl-3-(1-methylethyl)imino-2-(6-methoxy-3-pyridyl)amino-3,5-dihydrophenazine] | 0.5 (≈ 1.15 µM) |
| COc1ccc(Nc2cc3nc4ccccc4n(-c4ccccc4)c-3c/c2=N\C2CC2)cn1 [TBI-511, 5-Phenyl-3-cyclopropylimino-2-(6-methoxy-3-pyridyl)amino-3,5-dihydrophenazine] | 0.177 (≈ 0.408 µM) |
| COc1ccc(Nc2cc3nc4ccccc4n(-c4ccccc4)c-3c/c2=N\C2CCC2)cn1 [TBI-512, 5-Phenyl-3-cyclobutylimino-2-(6-methoxy-3-pyridyl)amino-3,5-dihydrophenazine] | 0.41 (≈ 0.916 µM) |
| COc1ccc(Nc2cc3nc4ccccc4n(-c4ccccc4)c-3c/c2=N\C2CCCCC2)cn1 [TBI-513, 5-Phenyl-3-cyclohexylimino-2-(6-methoxy-3-pyridyl)amino-3,5-dihydrophenazine] | 0.244 (≈ 0.513 µM) |
| COc1ccc(Nc2cc3nc4ccccc4n(-c4ccccc4)c-3c/c2=N\C2CCC(OC)CC2)cn1 (centres unmarked) [TBI-514, 5-Phenyl-3-(4-methoxycyclohexyl)imino-2-(6-methoxy-3-pyridyl)amino-3,5-dihydrophenazine] | 0.243 (≈ 0.481 µM) |
| COc1ccc(Nc2cc3nc4ccccc4n(-c4ccccc4)c-3c/c2=N\C2CCOCC2)cn1 [TBI-515, 5-Phenyl-3-(4-tetrahydropyranyl)imino-2-(6-methoxy-3-pyridyl)amino-3,5-dihydrophenazine] | 0.233 (≈ 0.488 µM) |
| COc1ncccc1Nc1cc2nc3ccccc3n(-c3ccc(Br)cc3)c-2c/c1=N\C(C)C [TBI-516, 5-(4-Bromophenyl)-3-(1-methylethyl)imino-2-(2-methoxy-3-pyridyl)amino-3,5-dihydrophenazine] | 0.049 (≈ 0.0953 µM) |
| COc1ncccc1Nc1cc2nc3ccccc3n(-c3ccc(Br)cc3)c-2c/c1=N\C1CCCCC1 [TBI-517, 5-(4-Bromophenyl)-3-cyclohexylimino-2-(2-methoxy-3-pyridyl)amino-3,5-dihydrophenazine] | 0.029 (≈ 0.0523 µM) |
| COc1ncccc1Nc1cc2nc3ccccc3n(-c3ccc(Br)cc3)c-2c/c1=N\C1CCOCC1 [TBI-518, 5-(4-Bromophenyl)-3-(4-tetrahydropyranyl)imino-2-(2-methoxy-3-pyridyl)amino-3,5-dihydrophenazine] | 0.02 (≈ 0.0359 µM) |
| COc1ncccc1Nc1cc2nc3ccccc3n(-c3ccc(Br)cc3)c-2c/c1=N\C1CCC1 [TBI-520] | 0.043 (≈ 0.0817 µM) |
| COc1ncccc1Nc1cc2nc3ccccc3n(-c3ccc(Br)cc3)c-2c/c1=N\C1CCC(OC)CC1 (centres unmarked) [TBI-521, 5-(4-Bromophenyl)-3-(4-methoxycyclohexyl)imino-2-(2-methoxy-3-pyridyl)amino-3,5-dihydrophenazine] | 0.031 (≈ 0.053 µM) |
| COc1ncccc1Nc1cc2nc3ccccc3n(-c3cccc(F)c3)c-2c/c1=N\C(C)C [TBI-523] | 0.06 (≈ 0.132 µM) |
| CC(C)/N=c1\cc2n(-c3ccc(F)c(F)c3)c3ccccc3nc-2cc1Nc1cccnc1 [TBI-525, 5-(3,4-Difluorophenyl)-3-(1-methylethyl)imino-2-(3-pyridyl)amino-3,5-dihydrophenazine] | 0.058 (≈ 0.131 µM) |
| Fc1ccc(-n2c3c/c(=N\C4CCC4)c(Nc4cccnc4)cc-3nc3ccccc32)cc1F [TBI-526, 5-(3,4-Difluorophenyl)-3-cyclobutylimino-2-(3-pyridyl)amino-3,5-dihydrophenazine] | 0.079 (≈ 0.174 µM) |
| Fc1ccc(-n2c3c/c(=N\C4CCCCC4)c(Nc4cccnc4)cc-3nc3ccccc32)cc1F [TBI-527, 5-(3,4-Difluorophenyl)-3-cyclohexylimino-2-(3-pyridyl)amino-3,5-dihydrophenazine] | 0.039 (≈ 0.081 µM) |
| COCC(COC)/N=c1\cc2n(-c3ccc(F)c(F)c3)c3ccccc3nc-2cc1Nc1cccnc1 [TBI-528, 5-(3,4-Difluorophenyl)-3-(1,3-dimethoxyisopropyl)imino-2-(3-pyridyl)amino-3,5-dihydrophenazine] | 0.216 (≈ 0.431 µM) |
| COc1ncccc1Nc1cc2nc3ccccc3n(-c3ccc(F)c(F)c3)c-2c/c1=N\C1CCC1 [TBI-530, 5-(3,4-Difluorophenyl)-3-cyclobutylimino-2-(2-methoxy-3-pyridyl)amino-3,5-dihydrophenazine] | 0.04 (≈ 0.0827 µM) |
| COc1ncccc1Nc1cc2nc3ccccc3n(-c3ccc(F)c(F)c3)c-2c/c1=N\C1CCCCC1 [TBI-531, 5-(3,4-Difluorophenyl)-3-cyclohexylimino-2-(2-methoxy-3-pyridyl)amino-3,5-dihydrophenazine] | 0.03 (≈ 0.0586 µM) |
| CC(C)/N=c1\cc2n(-c3ccc(F)cc3)c3ccccc3nc-2cc1Nc1cccnc1 [TBI-679, 5-(4-Fluorophenyl)-3-(1-methylethyl)imino-2-(3-pyridyl)amino-3,5-dihydrophenazine] | 0.03 (≈ 0.0708 µM) |
